This is an account of results in patent US20200361914A1, “SUBSTITUTED BENZENE AND 6,5-FUSED BICYCLIC HETEROARYL COMPOUNDS” (Epizyme, Inc., priority 2014, published 2020).

The IC50 is the concentration needed to halve the response being measured. Lower therefore signals greater potency.

For experiment [1], the target named is wild-type PRC2 enzyme (EZH2 WT) (Homo sapiens, UniProt Q15910). The experiment in a line: PRC2 enzyme assay on peptide substrate, wild-type EZH2.
Source text: (§1) S-adenosylmethionine (SAM), S-adenosylhomocyteine (SAH), bicine, KCl, Tween20, dimethylsulfoxide (DMSO) and bovine skin gelatin (BSG) can be purchased from Sigma-Aldrich at the highest level of purity possible. Dithiothreitol (DTT) was purchased from EMD. ^3H-SAM can be purchased from American Radiolabeled Chemicals with a specific activity of 80 C1/mmol. 384-well streptavidin Flashplates can be purchased from PerkinElmer.
(§2) Recombinant PRC2 Enzymes. Human PRC2 enzymes are purified as 4-component enzyme complexes co-expressed in Spodoptera frugiperda (sf9) cells using a baculovirus expression system. […] The EED subunit contains an N-terminal FLAG tag that is used to purify the entire 4-component complex from sf9 cell lysates. The purity of the complexes meets or exceeds 95% as determined by SDS-PAGE and Agilent Bioanalyzer analysis.
(§3) General Procedure for PRC2 Enzyme Assays on Peptide Substrates. The assays are all performed in a buffer consisting of 20 mM bicine (pH=7.6), 0.5 mM DTT, 0.005% BSG and 0.002% Tween20, prepared on the day of use. […] DMSO (1 μL) is added to columns 11, 12, 23, 24, rows A-H for the maximum signal control, and SAH, a known product and inhibitor of PRC2 (1 μL) is added to columns 11, 12, 23, 24, rows I-P for the minimum signal control. A cocktail (40 μL) containing the wild-type PRC2 enzyme and H3K27me0 peptide or any of the Y641 mutant enzymes and H3K27me2 peptide is added by Multidrop Combi (Thermo). The compounds are allowed to incubate with PRC2 for 30 min at 25° C., then a cocktail (10 μL) containing a mixture of non-radioactive and ^3H-SAM is added to initiate the reaction (final volume=51 μL). […] The assays are stopped by the addition of non-radioactive SAM (10 μL) to a final concentration of 600 μM, which dilutes the ^3H-SAM to a level where its incorporation into the peptide substrate is no longer detectable. 50 μL of the reaction in the 384-well polypropylene plate is then transferred to a 384-well Flashplate and the biotinylated peptides are allowed to bind to the streptavidin surface for at least 1h before being washed three times with 0.1% Tween20 in a Biotek ELx405 plate washer. The plates are then read in a PerkinElmer TopCount platereader to measure the quantity of ^3H-labeled peptide bound to the Flashplate surface, measured as disintegrations per minute (dpm) or alternatively, referred to as counts per minute (cpm).
(§4) Where dpm=disintegrations per minute, cmpd=signal in assay well, and min and max are the respective minimum and maximum signal controls.
(§5) Where top and bottom are the normally allowed to float, but may be fixed at 100 or 0 respectively in a 3-parameter fit. The Hill Coefficient normally allowed to float but may also be fixed at 1 in a 3-parameter fit. Y is the % inhibition and X is the compound concentration.
Experiment [2] concerns the target Y641 mutant PRC2 enzyme (EZH2 Y641) (Homo sapiens, UniProt Q15910, Y641F). The experiment in a line: PRC2 enzyme assay on peptide substrate, Y641 mutant EZH2.
Source text: as §1, §2, §3, §4, §5
The mark [3] stands for this setting: EZH2 WT IC50 (μM), wild-type PRC2 enzyme, H3K27me0 peptide substrate.
[4] abbreviates: EZH2 Y641 IC50 (μM), Y641 mutant EZH2 such as Y641F, H3K27me2 peptide substrate.

Where two headings read alike, the source gives them in different places. Bounds are passed on as bounds.

Chain of Y641 mutant PRC2 enzyme (EZH2 Y641) (Q15910 whole entry Y641F): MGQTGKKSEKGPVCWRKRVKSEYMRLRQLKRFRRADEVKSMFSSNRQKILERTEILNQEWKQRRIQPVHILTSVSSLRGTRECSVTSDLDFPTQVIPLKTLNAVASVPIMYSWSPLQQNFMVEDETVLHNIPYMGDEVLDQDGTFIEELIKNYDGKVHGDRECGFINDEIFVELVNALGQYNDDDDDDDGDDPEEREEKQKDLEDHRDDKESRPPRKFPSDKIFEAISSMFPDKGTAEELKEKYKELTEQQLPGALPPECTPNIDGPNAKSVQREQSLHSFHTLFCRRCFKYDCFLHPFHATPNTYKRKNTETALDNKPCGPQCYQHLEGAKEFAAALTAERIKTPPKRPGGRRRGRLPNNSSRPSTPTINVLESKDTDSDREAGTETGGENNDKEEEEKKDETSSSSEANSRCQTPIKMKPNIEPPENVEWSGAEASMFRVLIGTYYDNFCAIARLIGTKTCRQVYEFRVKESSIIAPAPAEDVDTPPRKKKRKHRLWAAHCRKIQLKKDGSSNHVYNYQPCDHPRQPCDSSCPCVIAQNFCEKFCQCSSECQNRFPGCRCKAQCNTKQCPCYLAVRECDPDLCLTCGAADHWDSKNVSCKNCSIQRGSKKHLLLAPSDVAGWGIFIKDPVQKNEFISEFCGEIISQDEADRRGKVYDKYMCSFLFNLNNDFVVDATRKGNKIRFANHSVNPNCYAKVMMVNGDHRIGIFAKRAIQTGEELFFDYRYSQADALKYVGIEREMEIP
Chain of Y641 mutant PRC2 enzyme (EZH2 Y641) (O75530 whole entry partner): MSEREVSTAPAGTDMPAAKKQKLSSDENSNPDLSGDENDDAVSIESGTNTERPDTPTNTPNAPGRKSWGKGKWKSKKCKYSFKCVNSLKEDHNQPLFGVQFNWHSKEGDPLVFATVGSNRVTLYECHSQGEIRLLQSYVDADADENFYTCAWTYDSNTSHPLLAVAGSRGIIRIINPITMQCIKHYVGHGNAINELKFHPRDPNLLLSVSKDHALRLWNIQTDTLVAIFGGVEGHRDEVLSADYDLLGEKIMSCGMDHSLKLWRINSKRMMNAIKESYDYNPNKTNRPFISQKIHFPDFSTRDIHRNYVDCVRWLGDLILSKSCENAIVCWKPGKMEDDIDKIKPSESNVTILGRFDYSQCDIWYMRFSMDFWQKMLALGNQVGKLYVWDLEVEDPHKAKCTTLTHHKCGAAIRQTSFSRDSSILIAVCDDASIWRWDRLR
Chain of Y641 mutant PRC2 enzyme (EZH2 Y641) (Q15022 whole entry partner): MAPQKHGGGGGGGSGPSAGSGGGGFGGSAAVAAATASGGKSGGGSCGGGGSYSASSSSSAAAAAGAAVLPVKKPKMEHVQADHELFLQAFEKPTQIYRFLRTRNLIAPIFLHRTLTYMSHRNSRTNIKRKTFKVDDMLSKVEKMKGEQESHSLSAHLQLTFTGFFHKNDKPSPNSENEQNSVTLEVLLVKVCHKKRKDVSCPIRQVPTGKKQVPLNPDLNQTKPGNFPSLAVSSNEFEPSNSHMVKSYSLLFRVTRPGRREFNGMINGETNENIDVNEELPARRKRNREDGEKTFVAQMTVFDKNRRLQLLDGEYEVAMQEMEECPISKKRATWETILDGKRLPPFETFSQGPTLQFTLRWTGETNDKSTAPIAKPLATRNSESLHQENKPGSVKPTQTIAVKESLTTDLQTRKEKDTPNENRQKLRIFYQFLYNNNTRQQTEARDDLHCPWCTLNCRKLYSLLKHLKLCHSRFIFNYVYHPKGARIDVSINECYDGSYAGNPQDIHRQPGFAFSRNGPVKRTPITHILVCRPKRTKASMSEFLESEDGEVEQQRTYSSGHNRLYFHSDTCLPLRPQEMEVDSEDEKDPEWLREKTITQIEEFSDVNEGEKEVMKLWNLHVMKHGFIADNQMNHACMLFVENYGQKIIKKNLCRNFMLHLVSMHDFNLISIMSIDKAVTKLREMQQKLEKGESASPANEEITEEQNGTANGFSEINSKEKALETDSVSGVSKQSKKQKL
Chain of Y641 mutant PRC2 enzyme (EZH2 Y641) (Q09028 whole entry partner): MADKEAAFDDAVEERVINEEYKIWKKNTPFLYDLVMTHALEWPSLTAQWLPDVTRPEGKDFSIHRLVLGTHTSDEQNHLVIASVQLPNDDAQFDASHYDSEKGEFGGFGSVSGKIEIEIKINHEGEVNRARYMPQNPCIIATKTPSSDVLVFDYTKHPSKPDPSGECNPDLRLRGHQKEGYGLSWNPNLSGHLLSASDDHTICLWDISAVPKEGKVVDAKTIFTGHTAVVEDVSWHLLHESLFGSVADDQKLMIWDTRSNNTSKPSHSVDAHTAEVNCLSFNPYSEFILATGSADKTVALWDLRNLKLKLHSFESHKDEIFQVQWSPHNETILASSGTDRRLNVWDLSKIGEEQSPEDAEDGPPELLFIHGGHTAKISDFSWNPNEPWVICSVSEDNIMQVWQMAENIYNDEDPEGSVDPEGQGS
Chain of wild-type PRC2 enzyme (EZH2 WT) (Q15910 whole entry): as the sequence (Q15910 whole entry Y641F) above, with F641Y counted along it
Chain of wild-type PRC2 enzyme (EZH2 WT) (O75530 whole entry partner): as the sequence (O75530 whole entry partner) above
Chain of wild-type PRC2 enzyme (EZH2 WT) (Q15022 whole entry partner): as the sequence (Q15022 whole entry partner) above
Chain of wild-type PRC2 enzyme (EZH2 WT) (Q09028 whole entry partner): as the sequence (Q09028 whole entry partner) above

In the case of `COc1c(CNC(=O)c2ccc(C(C)Oc3ccccc3)c(Cl)c2)c(C)nn1C` (stereo not shown) [compound 2, 3-chloro-N-((5-methoxy-1,3-dimethyl-1H-pyrazol-4-yl)methyl)-4-(1-phenoxyethyl)benzamide], the IC50 in experiment [1] and in experiment [2] was over 50 µM in each case.

As to `Cc1c(CNC(=O)c2ccc(Oc3cccc(-c4ccnnc4)c3C#N)c(Cl)c2)c(=O)[nH]n1C` [compound 15, 3-chloro-4-(2-cyano-3-(pyridazin-4-yl)phenoxy)-N-((1,5-dimethyl-3-oxo-2,3-dihydro-1H-pyrazol-4-yl)methyl)benzamide], the IC50 in experiment [1] and in experiment [2] was 10 to 50 µM each time.

Regarding `Cc1cc(=O)c(CNC(=O)c2cc(Cl)c(C(C)Oc3ccccc3)cc2C)c(C)[nH]1` (stereo not shown) [compound 11, 5-chloro-N-((2,6-dimethyl-4-oxo-1,4-dihydropyridin-3-yl)methyl)-2-methyl-4-(1-phenoxyethyl)benzamide], the results for the IC50 in experiment [1] and in experiment [2] were 10 to 50 µM and 1 to 10 µM, respectively.

Consider `CCN(c1cc(Cl)cc(C(=O)NC2CC(C)(C)NC(C)(C)C2)c1C)[C@H]1CC[C@H](N(C)C)CC1` [compound 31, 5-chloro-3-(((trans)-4-(dimethylamino)cyclohexyl)(ethyl)amino)-2-methyl-N-(2,2,6,6-tetramethylpiperidin-4-yl)benzamide], for which the IC50 in experiment [1] and in experiment [2] was over 50 µM each time.

For the compound `COc1c(CNC(=O)c2ccc(C(C)Oc3ccccc3)cc2C)c(C)nn1C` (stereo not shown) [compound 7, N-((5-methoxy-1,3-dimethyl-1H-pyrazol-4-yl)methyl)-2-methyl-4-(1-phenoxyethyl)benzamide], the IC50 in experiment [1] and in experiment [2] was over 50 µM in each case.

Consider `Cc1[nH]n(C)c(=O)c1CNC(=O)c1ccc(C(C)Oc2ccccc2)c(Cl)c1` (stereo not shown) [compound 3, 3-chloro-N-((2,5-dimethyl-3-oxo-2,3-dihydro-1H-pyrazol-4-yl)methyl)-4-(1-phenoxyethyl)benzamide], for which the IC50 in experiment [1] and in experiment [2] was over 50 µM throughout.

As to `COc1nn(C)c(C)c1CNC(=O)c1cc(Cl)c(C(C)Oc2ccccc2)cc1C` (stereo not shown) [compound 9, 5-chloro-N-((3-methoxy-1,5-dimethyl-1H-pyrazol-4-yl)methyl)-2-methyl-4-(1-phenoxyethyl)benzamide], the IC50 in experiment [1] and in experiment [2] was over 50 µM throughout.

On to `Cc1c(CNC(=O)c2c(C)n(C(C)C3CCOCC3)c3ccccc23)c(=O)[nH]n1C` (stereo not shown) [compound 23, N-((1,5-dimethyl-3-oxo-2,3-dihydro-1H-pyrazol-4-yl)methyl)-2-methyl-1-(1-(tetrahydro-2H-pyran-4-yl)ethyl)-1H-indole-3-carboxamide], for which the IC50 in experiment [1] (setting [3]) was over 50 µM; in experiment [2] (setting [4]), 10 to 50 µM.

As for `CCC(C)n1cc(C)c2c(C(=O)NCc3c(OC)nn(CC)c3C)cc(-c3ccc(N4CCNCC4)nc3)cc21` (stereo not shown) [compound 29, 1-(sec-butyl)-N-((1-ethyl-3-methoxy-5-methyl-1H-pyrazol-4-yl)methyl)-3-methyl-6-(6-(piperazin-1-yl)pyridin-3-yl)-1H-indole-4-carboxamide], the half-maximal inhibitory concentration (IC50) in experiment [1] and in experiment [2] was 1 to 10 µM in each case.

In the case of `Cc1cc(C(C)Oc2ccccc2)ccc1C(=O)NCc1c(C)n(C)[nH]c1=O` (stereo not shown) [compound 8, N-((1,5-dimethyl-3-oxo-2,3-dihydro-1H-pyrazol-4-yl)methyl)-2-methyl-4-(1-phenoxyethyl)benzamide], the half-maximal inhibitory concentration (IC50) in experiment [1] and in experiment [2] was over 50 µM in each case.

Take `Cc1cc(=O)c(CNC(=O)c2ccc(Oc3cccc(-c4ccnnc4)c3C#N)c(Cl)c2)c(C)[nH]1` [compound 13, 3-chloro-4-(2-cyano-3-(pyridazin-4-yl)phenoxy)-N-((2,6-dimethyl-4-oxo-1,4-dihydropyridin-3-yl)methyl)benzamide]: the IC50 in experiment [1] was 10 to 50 µM; in experiment [2] it was 1 to 10 µM.

Regarding `COc1nn(C)c(C)c1CNC(=O)c1cc(Cl)c(Oc2cccc(-c3ccnnc3)c2C#N)cc1C` [compound 17, 5-chloro-4-(2-cyano-3-(pyridazin-4-yl)phenoxy)-N-((3-methoxy-1,5-dimethyl-1H-pyrazol-4-yl)methyl)-2-methylbenzamide], the IC50 in experiment [1] and in experiment [2] was over 50 µM in each case.

Consider `Cc1cc(C(C)Oc2ccccc2)c(Cl)cc1C(=O)NCc1c(C)n(C)[nH]c1=O` (stereo not shown) [compound 10, 5-chloro-N-((1,5-dimethyl-3-oxo-2,3-dihydro-1H-pyrazol-4-yl)methyl)-2-methyl-4-(1-phenoxyethyl)benzamide], for which the IC50 in experiment [1] and in experiment [2] was 10 to 50 µM each time.

Take `CCC(C)n1cc(C)c2c(C(=O)NCc3c(OC)nn(C)c3C)cc(-c3ccc(N4CCNCC4)nc3)cc21` (stereo not shown) [compound 27, 1-(sec-butyl)-N-((3-methoxy-1,5-dimethyl-1H-pyrazol-4-yl)methyl)-3-methyl-6-(6-(piperazin-1-yl)pyridin-3-yl)-1H-indole-4-carboxamide]: the IC50 in experiment [1] was 1 to 10 µM; in experiment [2], 0.1 to 1 µM.

Consider `CCN(c1cc(Cl)cc(C(=O)NC2CC(C)(C)NC(C)(C)C2)c1C)[C@H]1CC[C@H](N(C)CCOC)CC1` [compound 32, 5-chloro-3-(ethyl((trans)-4-((2-methoxyethyl)-(methyl)-amino)-cyclohexyl)amino)-2-methyl-N-(2,2,6,6-tetramethylpiperidin-4-yl)benzamide], for which the IC50 in experiment [1] and in experiment [2] was over 50 µM in each case.

With `CCN(c1cc(-c2ccc(OCCOC)cc2)cc(C(=O)NC2CC(C)(C)NC(C)(C)C2)c1C)C1CCOCC1` [compound 34, 5-(ethyl(tetrahydro-2H-pyran-4-yl)amino)-4′-(2-methoxyethoxy)-4-methyl-N-(2,2,6,6-tetramethylpiperidin-4-yl)-[1,1′-biphenyl]-3-carboxamide], the IC50 in experiment [1] and in experiment [2] was over 50 µM each time.

`COc1nn(C)c(C)c1CNC(=O)c1c(C)n(C(C)C2CCOCC2)c2ccccc12` (stereo not shown) [compound 22, N-((3-methoxy-1,5-dimethyl-1H-pyrazol-4-yl)methyl)-2-methyl-1-(1-(tetrahydro-2H-pyran-4-yl)ethyl)-1H-indole-3-carboxamide]: the IC50 in experiment [1] (setting [3]) and in experiment [2] (setting [4]) was over 50 µM each time.

In the case of `Cc1c(CNC(=O)c2ccc(C(C)Oc3ccccc3)c(Cl)c2)c(=O)[nH]n1C` (stereo not shown) [compound 4, 3-chloro-N-((1,5-dimethyl-3-oxo-2,3-dihydro-1H-pyrazol-4-yl)methyl)-4-(1-phenoxyethyl)benzamide], the half-inhibitory concentration (IC50) in experiment [1] and in experiment [2] was over 50 µM throughout.

Consider `Cc1cc(Oc2cccc(-c3ccnnc3)c2C#N)c(Cl)cc1C(=O)NCc1c(C)n(C)[nH]c1=O` [compound 18, 5-chloro-4-(2-cyano-3-(pyridazin-4-yl)phenoxy)-N-((1,5-dimethyl-3-oxo-2,3-dihydro-1H-pyrazol-4-yl)methyl)-2-methylbenzamide], for which the half-maximal inhibitory concentration (IC50) in experiment [1] and in experiment [2] was 1 to 10 µM in each case.

Take `CCC(C)n1cc(C)c2c(C(=O)NCc3c(C)n(C)[nH]c3=O)cc(-c3ccc(N4CCNCC4)nc3)cc21` (stereo not shown) [compound 28, 1-(sec-butyl)-N-((1,5-dimethyl-3-oxo-2,3-dihydro-1H-pyrazol-4-yl)methyl)-3-methyl-6-(6-(piperazin-1-yl)pyridin-3-yl)-1H-indole-4-carboxamide]: the IC50 in experiment [1] fell in the range of 10 to 50 µM; in experiment [2], 1 to 10 µM.
